Assay results from US9529005B2, “Modulating bacterial MAM polypeptides in pathogenic disease” (priority 2011, dated 2016).
Values after ≈ are worked out from the molar mass of the structure shown. Where two headings read alike, the source gives them in different places.

Columns and labels:
Experiment in all cases: Antimicrobial susceptibility testing (MIC), BD Phoenix Automated Microbiology System; on interpretation of the result: key: R, resistant; I, intermediate; S, susceptible; R*: *As a rule, when ESBL is detected, an interpretation of susceptible or intermediate for penicillins, cephalosporins and aztreonam is reported as resistant
Type in all cases: cell-based
[1] = test system: Acinetobacter baumannii; conditions: for MIC: Acinetobacter baumannii; on interpretation of the result: key: R, resistant; I, intermediate; S, susceptible; R*: *As a rule, when ESBL is detected, an interpretation of susceptible or intermediate for penicillins, cephalosporins and aztreonam is reported as resistant
From the text: (§1) The inventors performed antimicrobial susceptibility testing (AST) by determining the minimal inhibiting concentration (MIC) of a panel of antimicrobials on all twenty bacterial isolates using the BD Phoenix Automated Microbiology System (Table 3). Antimicrobial panels included several drugs from each of the four most commonly used classes of antimicrobials, aminoglycosides, β-lactams, carbapenems and fluoroquinolones. The panels also included antimicrobials from other classes, such as trimethoprim/sulfamethoxazole, but resistance to these was not considered in the classification of isolates as multidrug-resistant.

[2] = test system: Escherichia coli; conditions: for MIC: Escherichia coli; on interpretation of the result: key: R, resistant; I, intermediate; S, susceptible; R*: *As a rule, when ESBL is detected, an interpretation of susceptible or intermediate for penicillins, cephalosporins and aztreonam is reported as resistant
From the text: as §1

[3] = test system: Klebsiella ssp.; conditions: for MIC: Klebsiella; on interpretation of the result: key: R, resistant; I, intermediate; S, susceptible; R*: *As a rule, when ESBL is detected, an interpretation of susceptible or intermediate for penicillins, cephalosporins and aztreonam is reported as resistant
From the text: as §1

[4] = test system: Pseudomonas aeruginosa; conditions: for MIC: Pseudomonas aeruginosa
From the text: as §1

[5] = Acinetobacter baumannii isolate 1
[6] = Acinetobacter baumannii isolate 2
[7] = Acinetobacter baumannii isolate 3
[8] = Acinetobacter baumannii isolate 4
[9] = Acinetobacter baumannii isolate 5
[10] = read-out: minimal inhibiting concentration, Acinetobacter baumannii isolate 1
[11] = read-out: minimal inhibiting concentration, Acinetobacter baumannii isolate 2
[12] = read-out: minimal inhibiting concentration, Acinetobacter baumannii isolate 3
[13] = read-out: minimal inhibiting concentration, Acinetobacter baumannii isolate 4
[14] = read-out: minimal inhibiting concentration, Acinetobacter baumannii isolate 5
[15] = read-out: minimal inhibiting concentration, Escherichia coli isolate 1
[16] = read-out: minimal inhibiting concentration, Escherichia coli isolate 2
[17] = read-out: minimal inhibiting concentration, Escherichia coli isolate 3
[18] = read-out: minimal inhibiting concentration, Escherichia coli isolate 4
[19] = read-out: minimal inhibiting concentration, Escherichia coli isolate 5
[20] = read-out: minimal inhibiting concentration, Klebsiella ssp. isolate 1
[21] = read-out: minimal inhibiting concentration, Klebsiella ssp. isolate 2
[22] = read-out: minimal inhibiting concentration, Klebsiella ssp. isolate 3
[23] = read-out: minimal inhibiting concentration, Klebsiella ssp. isolate 4
[24] = read-out: minimal inhibiting concentration, Klebsiella ssp. isolate 5
[25] = Pseudomonas aeruginosa isolate 1
[26] = Pseudomonas aeruginosa isolate 2
[27] = Pseudomonas aeruginosa isolate 3
[28] = Pseudomonas aeruginosa isolate 4
[29] = Pseudomonas aeruginosa isolate 5
[30] = read-out: minimal inhibiting concentration, Pseudomonas aeruginosa isolate 1
[31] = read-out: minimal inhibiting concentration, Pseudomonas aeruginosa isolate 2
[32] = read-out: minimal inhibiting concentration, Pseudomonas aeruginosa isolate 3
[33] = read-out: minimal inhibiting concentration, Pseudomonas aeruginosa isolate 4
[34] = read-out: minimal inhibiting concentration, Pseudomonas aeruginosa isolate 5

Question: For `C[C@H]1COc2c(N3CCN(C)CC3)c(F)cc3c(=O)c(C(=O)O)cn1c23` [Lev., Levofloxacin], which “interpretation of the result” value [1, 5] is on record?
Answer: R

Question: What about the “interpretation of the result” value [1, 6] of the same compound?
Answer: R

Question: And the “interpretation of the result” value [1, 7]?
Answer: I

Question: What about the “interpretation of the result” value [1, 8] of the same compound?
Answer: R

Question: What about the “interpretation of the result” value [1, 9] of the same compound?
Answer: R

Question: What about the MIC [1, 10] of the same compound?
Answer: > 4 µg/mL

Question: What about the MIC [1, 11] of the same compound?
Answer: > 4 µg/mL

Question: And the MIC [1, 12]?
Answer: 4 µg/mL (≈ 11.1 µM)

Question: What about the MIC [1, 13] of the same compound?
Answer: > 4 µg/mL

Question: What about the MIC [1, 14] of the same compound?
Answer: > 4 µg/mL

Question: What about the “interpretation of the result” value ([2]; Escherichia coli isolate 1) of the same compound?
Answer: R

Question: And the “interpretation of the result” value ([2]; Escherichia coli isolate 2)?
Answer: R

Question: And the “interpretation of the result” value ([2]; Escherichia coli isolate 3)?
Answer: R

Question: What about the “interpretation of the result” value ([2]; Escherichia coli isolate 4) of the same compound?
Answer: R

Question: And the “interpretation of the result” value ([2]; Escherichia coli isolate 5)?
Answer: R

Question: And the MIC [2, 15]?
Answer: > 4 µg/mL

Question: What about the MIC [2, 16] of the same compound?
Answer: > 4 µg/mL

Question: And the MIC [2, 17]?
Answer: > 4 µg/mL

Question: And the MIC [2, 18]?
Answer: > 4 µg/mL

Question: What about the MIC [2, 19] of the same compound?
Answer: > 4 µg/mL

Question: And the “interpretation of the result” value ([3]; Klebsiella ssp. isolate 1)?
Answer: R

Question: And the “interpretation of the result” value ([3]; Klebsiella ssp. isolate 2)?
Answer: S

Question: And the “interpretation of the result” value ([3]; Klebsiella ssp. isolate 3)?
Answer: S

Question: What about the “interpretation of the result” value ([3]; Klebsiella ssp. isolate 4) of the same compound?
Answer: S

Question: And the “interpretation of the result” value ([3]; Klebsiella ssp. isolate 5)?
Answer: S

Question: And the MIC [3, 20]?
Answer: > 4 µg/mL

Question: What about the MIC [3, 21] of the same compound?
Answer: ≤ 1 µg/mL

Question: What about the MIC [3, 22] of the same compound?
Answer: ≤ 1 µg/mL

Question: And the MIC [3, 23]?
Answer: ≤ 1 µg/mL

Question: What about the MIC [3, 24] of the same compound?
Answer: ≤ 1 µg/mL

Question: What about the “interpretation of the result” value [4, 25] of the same compound?
Answer: R

Question: And the “interpretation of the result” value [4, 26]?
Answer: R

Question: And the “interpretation of the result” value [4, 27]?
Answer: R

Question: And the “interpretation of the result” value [4, 28]?
Answer: R

Question: What about the “interpretation of the result” value [4, 29] of the same compound?
Answer: R

Question: And the MIC [4, 30]?
Answer: > 4 µg/mL

Question: What about the MIC [4, 31] of the same compound?
Answer: > 4 µg/mL

Question: And the MIC [4, 32]?
Answer: > 4 µg/mL

Question: What about the MIC [4, 33] of the same compound?
Answer: > 4 µg/mL

Question: And the MIC [4, 34]?
Answer: > 4 µg/mL

Question: How did the “interpretation of the result” value [1, 5] turn out when `C[C@@H](O)[C@H]1C(=O)N2C(C(=O)O)=C(S[C@@H]3CN[C@H](C(=O)N(C)C)C3)[C@H](C)[C@H]12` [Mero., Meropenem] was run?
Answer: S

Question: And the “interpretation of the result” value [1, 6]?
Answer: R

Question: And the “interpretation of the result” value [1, 7]?
Answer: R

Question: And the “interpretation of the result” value [1, 8]?
Answer: S

Question: What about the “interpretation of the result” value [1, 9] of the same compound?
Answer: R

Question: And the MIC [1, 10]?
Answer: 2 µg/mL (≈ 5.22 µM)

Question: What about the MIC [1, 11] of the same compound?
Answer: > 8 µg/mL

Question: And the MIC [1, 12]?
Answer: > 8 µg/mL

Question: What about the MIC [1, 13] of the same compound?
Answer: ≤ 1 µg/mL

Question: What about the MIC [1, 14] of the same compound?
Answer: > 8 µg/mL

Question: What about the “interpretation of the result” value ([2]; Escherichia coli isolate 1) of the same compound?
Answer: S

Question: And the “interpretation of the result” value ([2]; Escherichia coli isolate 2)?
Answer: S

Question: What about the “interpretation of the result” value ([2]; Escherichia coli isolate 3) of the same compound?
Answer: S

Question: And the “interpretation of the result” value ([2]; Escherichia coli isolate 4)?
Answer: S

Question: And the “interpretation of the result” value ([2]; Escherichia coli isolate 5)?
Answer: S

Question: And the MIC [2, 15]?
Answer: ≤ 1 µg/mL

Question: What about the MIC [2, 16] of the same compound?
Answer: ≤ 1 µg/mL

Question: And the MIC [2, 17]?
Answer: ≤ 1 µg/mL

Question: And the MIC [2, 18]?
Answer: ≤ 1 µg/mL

Question: And the MIC [2, 19]?
Answer: ≤ 1 µg/mL

Question: What about the susceptibility of isolates ([2]; all E. coli isolates) of the same compound?
Answer: susceptible

Question: What about the “interpretation of the result” value ([3]; Klebsiella ssp. isolate 1) of the same compound?
Answer: S

Question: What about the “interpretation of the result” value ([3]; Klebsiella ssp. isolate 2) of the same compound?
Answer: S

Question: And the “interpretation of the result” value ([3]; Klebsiella ssp. isolate 3)?
Answer: S

Question: And the “interpretation of the result” value ([3]; Klebsiella ssp. isolate 4)?
Answer: S

Question: And the “interpretation of the result” value ([3]; Klebsiella ssp. isolate 5)?
Answer: S

Question: And the MIC [3, 20]?
Answer: ≤ 1 µg/mL

Question: And the MIC [3, 21]?
Answer: ≤ 1 µg/mL

Question: And the MIC [3, 22]?
Answer: ≤ 1 µg/mL

Question: And the MIC [3, 23]?
Answer: ≤ 1 µg/mL

Question: And the MIC [3, 24]?
Answer: ≤ 1 µg/mL

Question: And the susceptibility of isolates ([3]; all Klebsiella ssp. isolates)?
Answer: susceptible

Question: What about the “interpretation of the result” value [4, 25] of the same compound?
Answer: S

Question: What about the “interpretation of the result” value [4, 26] of the same compound?
Answer: R

Question: And the “interpretation of the result” value [4, 27]?
Answer: R

Question: And the “interpretation of the result” value [4, 28]?
Answer: R

Question: What about the “interpretation of the result” value [4, 29] of the same compound?
Answer: S

Question: And the MIC [4, 30]?
Answer: 4 µg/mL (≈ 10.4 µM)

Question: And the MIC [4, 31]?
Answer: > 8 µg/mL

Question: And the MIC [4, 32]?
Answer: > 8 µg/mL

Question: And the MIC [4, 33]?
Answer: > 8 µg/mL

Question: And the MIC [4, 34]?
Answer: 4 µg/mL (≈ 10.4 µM)

Question: For `O=C1CN(/N=C/c2ccc([N+](=O)[O-])o2)C(=O)N1` [Nf., Nitrofurantoin], which “interpretation of the result” value [1, 5] is on record?
Answer: R

Question: And the “interpretation of the result” value [1, 6]?
Answer: R

Question: What about the “interpretation of the result” value [1, 7] of the same compound?
Answer: R

Question: What about the “interpretation of the result” value [1, 8] of the same compound?
Answer: R

Question: What about the “interpretation of the result” value [1, 9] of the same compound?
Answer: R

Question: What about the MIC [1, 10] of the same compound?
Answer: > 64 µg/mL

Question: What about the MIC [1, 11] of the same compound?
Answer: > 64 µg/mL

Question: And the MIC [1, 12]?
Answer: > 64 µg/mL

Question: And the MIC [1, 13]?
Answer: > 64 µg/mL

Question: What about the MIC [1, 14] of the same compound?
Answer: > 64 µg/mL

Question: And the “interpretation of the result” value ([2]; Escherichia coli isolate 1)?
Answer: S

Question: And the “interpretation of the result” value ([2]; Escherichia coli isolate 2)?
Answer: S

Question: What about the “interpretation of the result” value ([2]; Escherichia coli isolate 3) of the same compound?
Answer: S

Question: And the “interpretation of the result” value ([2]; Escherichia coli isolate 4)?
Answer: S

Question: What about the “interpretation of the result” value ([2]; Escherichia coli isolate 5) of the same compound?
Answer: S

Question: What about the MIC [2, 15] of the same compound?
Answer: 32 µg/mL (≈ 134 µM)

Question: And the MIC [2, 16]?
Answer: ≤ 16 µg/mL

Question: And the MIC [2, 17]?
Answer: ≤ 16 µg/mL

Question: And the MIC [2, 18]?
Answer: ≤ 16 µg/mL

Question: What about the MIC [2, 19] of the same compound?
Answer: ≤ 16 µg/mL

Question: What about the “interpretation of the result” value ([3]; Klebsiella ssp. isolate 1) of the same compound?
Answer: R

Question: What about the “interpretation of the result” value ([3]; Klebsiella ssp. isolate 2) of the same compound?
Answer: R

Question: And the “interpretation of the result” value ([3]; Klebsiella ssp. isolate 3)?
Answer: R

Question: And the “interpretation of the result” value ([3]; Klebsiella ssp. isolate 4)?
Answer: R

Question: What about the “interpretation of the result” value ([3]; Klebsiella ssp. isolate 5) of the same compound?
Answer: R

Question: And the MIC [3, 20]?
Answer: > 64 µg/mL

Question: And the MIC [3, 21]?
Answer: > 64 µg/mL

Question: What about the MIC [3, 22] of the same compound?
Answer: > 64 µg/mL

Question: What about the MIC [3, 23] of the same compound?
Answer: > 64 µg/mL

Question: What about the MIC [3, 24] of the same compound?
Answer: > 64 µg/mL

Question: What about the “interpretation of the result” value [4, 25] of the same compound?
Answer: R

Question: And the “interpretation of the result” value [4, 26]?
Answer: R

Question: And the “interpretation of the result” value [4, 27]?
Answer: R

Question: And the “interpretation of the result” value [4, 28]?
Answer: R

Question: What about the “interpretation of the result” value [4, 29] of the same compound?
Answer: R

Question: And the MIC [4, 30]?
Answer: > 64 µg/mL

Question: What about the MIC [4, 31] of the same compound?
Answer: > 64 µg/mL

Question: And the MIC [4, 32]?
Answer: > 64 µg/mL

Question: What about the MIC [4, 33] of the same compound?
Answer: > 64 µg/mL

Question: And the MIC [4, 34]?
Answer: > 64 µg/mL
